In publication PMC10049026, “In Silico Binding of 2-Aminocyclobutanones to SARS-CoV-2 Nsp13 Helicase and Demonstration of Antiviral Activity” (International Journal of Molecular Sciences, 2023):
Like-named read-outs stand apart in the source and are kept apart here.

Assays:
Helicase (NSP13) = details: cited from earlier work
SARS-CoV-2 [1] = assay: Cell survival following SARS-CoV-2 challenge; assay type: cell-based
[2] = test system: wild-type (alpha strain, SARS-CoV-2, USA-WA1/2020) SARS-CoV-2; assay: Inhibition of SARS-CoV-2 mediated cell death, wild type (dose response); assay type: cell-based
SARS-CoV-2 [3] = details: cited from earlier work
[4] = read-out: Tox CC50, cited from earlier work
SARS-CoV-2 [5] = test system: SARS-CoV-2; design: method as in Ref11; details: in vivo (Sirian hamster); ref Ref11; cited from earlier work
[6] = Severe acute respiratory syndrome coronavirus 2, Vero, read-out: IC50, dose response anti-viral testing (Figure 4), alpha strain USA-WA1/2020, legend names Vero cells
[7] = Severe acute respiratory syndrome coronavirus 2, wild-type (alpha strain, USA-WA1/2020), read-out: IC50 Values For inhibition of SARS-CoV-2 Mediated Cell Death, Wild Type
[8] = wild-type (alpha strain, USA-WA1/2020), read-out: IC50 Values For inhibition of SARS-CoV-2 Mediated Cell Death, Wild Type

O=C(O)CSc1cc(NS(=O)(=O)c2ccc(Br)cc2)c2ccccc2c1O [UMI-77]
IC50 (Helicase (NSP13); Enzyme assay, ref Ref5): 4.38 µM

O=C(N[C@H](Cc1ccccc1)C(=O)NC1CCC1=O)OCc1ccccc1 (stereo partly drawn) [Compound 2, Benzyl ((2R)-1-oxo-1-((2-oxocyclobutyl)amino)-3-phenylpropan-2-yl) carbamate]
Cell Survival following SARS-CoV-2 Challenge (SARS-CoV-2 [1]; 5 µM inhibitor concentration): 24.2 | Cell Survival following SARS-CoV-2 Challenge (SARS-CoV-2 [1]; 50 µM inhibitor concentration): 34.7 | cell survival (SARS-CoV-2 [1]; at 5 µM): 24.2% | IC50 [2, 6]: 20.3 ± 14.4 µM | IC50 [2, 7]: 6.89 µM | toxicity / growth inhibition of Vero cell line (Vero cell line): some inhibitory effect on Vero cell line growth

CC(C)[C@H](NC(=O)CCCCCN1C(=O)C=CC1=O)C(=O)N[C@@H](CCCNC(N)=O)C(=O)Nc1ccc(COC(=O)Oc2ccc([N+](=O)[O-])cc2)cc1 [MC-Val-Cit-PABC-PNP]
IC50 (Helicase (NSP13); Enzyme assay, ref Ref5): 2.45 µM

O=C1O[C@H]2[C@@H]3OC(=O)c4cc(O)c(O)c(O)c4-c4c(O)c(O)c5oc(=O)c6c(c(O)c(O)c7oc(=O)c4c5c76)-c4c(cc(O)c(O)c4O)C(=O)OC[C@H]3OC(O)[C@@H]2OC(=O)c2cc(O)c(O)c(O)c2-c2c1cc(O)c(O)c2O (mixture of isomers) [Punicalagin]
IC50 (Helicase (NSP13); Enzyme assay, ref Ref5): 0.43 µM | IC50 (SARS-CoV-2 [3]; in vitro assay, ref Ref5, read-out: Antiviral activity IC50): 0.347 µM | CC50 ([4]; ref Ref5): 33.9 µM

O=C(N[C@@H](Cc1ccccc1)C(=O)NC1CCC1=O)OCc1ccccc1 (stereo partly drawn) [Compound 9, Benzyl ((2S)-1-oxo-1-((2-oxocyclobutyl)amino)-3-phenylpropan-2-yl) carbamate]
Cell Survival following SARS-CoV-2 Challenge (SARS-CoV-2 [1]; 5 µM inhibitor concentration): 41.6 | Cell Survival following SARS-CoV-2 Challenge (SARS-CoV-2 [1]; 50 µM inhibitor concentration): 57.5 | IC50 [2, 6]: 8.53 ± 5.15 µM

Oc1cc(O)c2c(c1)O[C@H](c1cc(O)c(O)c(O)c1)[C@H](O)[C@H]2c1c(O)cc(O)c2c1O[C@H](c1cc(O)c(O)c(O)c1)[C@H](O)[C@H]2c1c(O)cc(O)c2c1O[C@H](c1cc(O)c(O)c(O)c1)[C@H](O)C2 [Katacine]
IC50 (Helicase (NSP13); Enzyme assay, ref Ref5): 5.98 µM

Cc1ccc(S(=O)(=O)N[C@H](Cc2ccccc2)C(=O)NC2CCC2=O)cc1 (stereo partly drawn) [Compound 6, (2R)-2-((4-Methylphenyl)sulfonamido)-N-(2-oxocyclobutyl)-3-phenylpropanamide]
Cell Survival following SARS-CoV-2 Challenge (SARS-CoV-2 [1]; 5 µM inhibitor concentration): 26.6 | Cell Survival following SARS-CoV-2 Challenge (SARS-CoV-2 [1]; 50 µM inhibitor concentration): 35.9

Cc1ccc(S(=O)(=O)N[C@@H](Cc2ccccc2)C(=O)NCC(C)(C)O)cc1 [Compound 10, (S)-N-(2-hydroxy-2-methylpropyl)-2-((4-methylphenyl)sulfonamido)-3-phenylpropanamide]
Cell Survival following SARS-CoV-2 Challenge (SARS-CoV-2 [1]; 5 µM inhibitor concentration): 36.7 | Cell Survival following SARS-CoV-2 Challenge (SARS-CoV-2 [1]; 50 µM inhibitor concentration): 59.2 | IC50 [2, 6]: 6.95 ± 1.95 µM | IC50 [2, 7]: 6.68 µM | toxicity / growth inhibition of Vero cell line (Vero cell line): some inhibitory effect on Vero cell line growth

FPA124
IC50 (Helicase (NSP13); Enzyme assay, ref Ref9): 8.5 µM | IC50 (SARS-CoV-2 [3]; ref Ref9, read-out: Antiviral activity IC50): 14 µM

CC(C)=CCc1c(O)cc(O)c2c(=O)cc(-c3ccc(O)cc3)oc12 [licoflavone C]
IC50 (Helicase (NSP13); Enzyme assay, ref Ref8): 1.34 µM

C=CCn1c(CSc2ccccc2[N+](=O)[O-])n[nH]c1=S [SSYA10-001]
CC50 ([4]; In vitro, ref Ref4): 80.5 µM

Cc1ccc(S(=O)(=O)N[C@@H](Cc2ccccc2)C(=O)NC2CCC2=O)cc1 (stereo partly drawn) [Compound 1, (2S)-2-((4-Methylphenyl)sulfonamido)-N-(2-oxocyclobutyl)-3-phenylpropanamide]
Cell Survival following SARS-CoV-2 Challenge (SARS-CoV-2 [1]; 5 µM inhibitor concentration): 39.3 | Cell Survival following SARS-CoV-2 Challenge (SARS-CoV-2 [1]; 50 µM inhibitor concentration): 49.8 | IC50 [2, 7]: 15.4 µM

Tannic acid
IC50 (Helicase (NSP13); Enzyme assay, ref Ref5): 1.25 µM

Cc1ccc(S(=O)(=O)N[C@@H](Cc2ccccc2)C(=O)NCC2(O)CC2)cc1 [Compound 5, (S)-N-((1-hydroxycyclopropyl)methyl)-2-((4-methylphenyl)sulfonamido)-3-phenylpropanamide]
Cell Survival following SARS-CoV-2 Challenge (SARS-CoV-2 [1]; 5 µM inhibitor concentration): 30.0 | Cell Survival following SARS-CoV-2 Challenge (SARS-CoV-2 [1]; 50 µM inhibitor concentration): 30.7

C=C[C@@H]1C[C@]1(NC(=O)[C@@H]1C[C@@H]2CN1C(=O)[C@H](C(C)(C)C)NC(=O)O[C@@H]1C[C@H]1CCCCCc1nc3ccc(OC)cc3nc1O2)C(=O)NS(=O)(=O)C1CC1 [Grazoprevir]
IC50 (SARS-CoV-2 [3]; in vitro assay, ref Ref6, read-out: Antiviral activity IC50): 1.41 µM

O=C(N/N=C/c1cc(O)c(O)cc1O)c1cc2ccccc2cc1O [Dyngo-4a]
IC50 (Helicase (NSP13); Enzyme assay, ref Ref5): 0.63 µM

O=C([O-])c1cc(=O)[nH]c(=O)[nH]1.O=C([O-])c1cc(=O)[nH]c(=O)[nH]1.[Zn+2] [Zinc Orotate]
IC50 (Helicase (NSP13); Enzyme assay, ref Ref5): 4.12 µM

CC(C)c1cc2c(c(O)c1O)[C@@]13CCCC(C)(C)[C@@H]1[C@H](OC3=O)[C@H]2O [Rosmanol]
IC50 (Helicase (NSP13); Enzyme assay, ref Ref5): 8.93 µM

(2R)-2-((4-Methoxyphenyl) sulfonamido)-3-methyl-N-(2-oxocyclobutyl) butanamide [Compound 8]
Cell Survival following SARS-CoV-2 Challenge (SARS-CoV-2 [1]; 5 µM inhibitor concentration): 32.0 | Cell Survival following SARS-CoV-2 Challenge (SARS-CoV-2 [1]; 50 µM inhibitor concentration): 49.1 | IC50 [2, 8]: 13.7 µM

CC(C)[C@H](NC(=O)OCc1ccccc1)C(=O)NC1CCC1=O (stereo partly drawn) [Compound 3, Benzyl ((2S)-3-methyl-1-oxo-1-((2-oxocyclobutyl)amino)butan-2-yl) carbamate]
Cell Survival following SARS-CoV-2 Challenge (SARS-CoV-2 [1]; 5 µM inhibitor concentration): 37.9 | Cell Survival following SARS-CoV-2 Challenge (SARS-CoV-2 [1]; 50 µM inhibitor concentration): 54.9 | IC50 [2, 6]: 15.1 ± 8.22 µM | IC50 [2, 7]: 13.1 µM

Cc1ccc(S(=O)(=O)N[C@@H](Cc2c[nH]c3ccccc23)C(=O)NC2CCC2=O)cc1 (stereo partly drawn) [Compound 4, (2S)-3-(1H-Indol-3-yl)-2-((4-methylphenyl)sulfonamido)-N-(2-oxocyclobutyl)propanamide]
Cell Survival following SARS-CoV-2 Challenge (SARS-CoV-2 [1]; 5 µM inhibitor concentration): 54.3 | Cell Survival following SARS-CoV-2 Challenge (SARS-CoV-2 [1]; 50 µM inhibitor concentration): 70.9 | IC50 [2, 6]: 13.2 ± 2.35 µM | IC50 ([2]; Severe acute respiratory syndrome coronavirus 2, read-out: IC50 Values For inhibition of SARS-CoV-2 Mediated Cell Death, Wild Type, wild-type (alpha strain, USA-WA1/2020)): 6.7 µM | IC50 [2, 8]: 13 µM | toxicity / growth inhibition of Vero cell line (Vero cell line): least toxic against the Vero cell line

COc1ccc2cc1Oc1ccc(cc1)C[C@H]1c3c(cc4c(c3Oc3cc5c(cc3OC)CCN(C)[C@@H]5C2)OCO4)CCN1C [cepharanthine]
IC50 (SARS-CoV-2 [3]; read-out: IC50, anti-SARS-CoV-2 activity): 400 µM

O=C(N[C@@H](Cc1ccc(O)cc1)C(=O)NC1CCC1=O)OCc1ccccc1 (stereo partly drawn) [Compound 7, Benzyl ((2S)-3-(4-hydroxyphenyl)-1-oxo-1-((2-oxocyclobutyl)amino)propan-2-yl) carbamate]
Cell Survival following SARS-CoV-2 Challenge (SARS-CoV-2 [1]; 5 µM inhibitor concentration): -2 | Cell Survival following SARS-CoV-2 Challenge (SARS-CoV-2 [1]; 50 µM inhibitor concentration): 28.1

CNC(=C[N+](=O)[O-])NCCSCc1ccc(CN(C)C)o1.O=C([O-])CC(O)(CC(=O)[O-])C(=O)[O-].[Bi+3] [Ranitidine bismuth citrate]
IC50 (Helicase (NSP13); In vitro & in vivo, ref Ref11, read-out: Enzyme Assay IC50): 0.69 µM | viral load redn in Animal lungs & nasal turbinate (SARS-CoV-2 [5]): 1 to 1.5 log | CC50 ([4]; ref Ref11): 3250 µM

CCN(CC)C(=S)SSC(=S)N(CC)CC [Disulfiram]
IC50 (Helicase (NSP13); Enzyme and in vitro assay, ref Ref10): 0.41 µM | IC50 (SARS-CoV-2 [3]; in vitro assay, ref Ref10, read-out: Antiviral activity IC50): 3.18 µM

COc1cc(C(=O)NS(=O)(=O)c2ccccc2C)ccc1Cc1cn(C)c2ccc(NC(=O)OC3CCCC3)cc12 [Zafirlukast]
IC50 (Helicase (NSP13); Enzyme assay, ref Ref7): 16.3 µM
